Tests used:
C8161 = test: Antiproliferative activity against human C8161 cells incubated for 72 hrs by alamar blue staining based assay; format: functional, cell-based; settings: C8161, 72 h
A-375 = test: Antiproliferative activity against human A-375 cells incubated for 72 hrs by alamar blue staining based assay; format: functional, cell-based; settings: A-375, 72 h
4T1 = test: Antiproliferative activity against mouse 4T1 cells incubated for 72 hrs by SRB method; format: functional, cell-based; settings: 4T1, 72 h
MDA-MB-231 [1] = test: Antiproliferative activity against human MDA-MB-231 cells incubated for 72 hrs by SRB method; format: functional, cell-based; settings: MDA-MB-231, 72 h
MCF7 [2] = test: Antiproliferative activity against human MCF7 cells incubated for 48 hrs by CCK8 assay; format: functional, cell-based; settings: MCF7, 48 h
MDA-MB-231 [3] = test: Antiproliferative activity against human MDA-MB-231 cells incubated for 96 hrs by MTT assay; format: functional, cell-based; settings: MDA-MB-231, 96 h
[4] = Antiproliferative activity against human HBC5 cells incubated for 96 hrs by MTT assay; format: functional, cell-based; settings: HBC5, 96 h
[5] = Inhibition of His-tagged TEAD2 (unknown origin) to YAP (unknown origin) protein-protein interaction preincubated for 30 mins followed by biotinylated YAP addition and measured after 60 mins by TR-FRET assay; design: species or system Homo sapiens
[6] = tested on: Transcriptional enhancer factor TEF-1-Lipid; test: Inhibition of His-tagged TEAD1 (unknown origin) to lipid (unknown origin) interaction preincubated for 30 mins followed by biotinylated lipid addition and measured after 60 mins by TR-FRET assay; design: species or system Homo sapiens
[7] = Inhibition of His-tagged TEAD1 (unknown origin) to TAZ (unknown origin) protein-protein interaction preincubated for 30 mins followed by biotinylated YAP addition and measured after 60 mins by TR-FRET assay; design: species or system Homo sapiens
[8] = Inhibition of His-tagged TEAD1 (unknown origin) to YAP (unknown origin) protein-protein interaction preincubated for 30 mins followed by biotinylated YAP addition and measured after 60 mins by TR-FRET assay; design: species or system Homo sapiens
[9] = Inhibition of His-tagged TEAD2 (unknown origin) to TAZ (unknown origin) protein-protein interaction preincubated for 30 mins followed by biotinylated YAP addition and measured after 60 mins by TR-FRET assay; design: species or system Homo sapiens
[10] = Inhibition of His-tagged TEAD4 (unknown origin) to TAZ (unknown origin) protein-protein interaction preincubated for 30 mins followed by biotinylated YAP addition and measured after 60 mins by TR-FRET assay; design: species or system Homo sapiens
[11] = Inhibition of His-tagged TEAD4 (unknown origin) to YAP (unknown origin) protein-protein interaction preincubated for 30 mins followed by biotinylated YAP addition and measured after 60 mins by TR-FRET assay; design: species or system Homo sapiens
[12] = tested on: Transcriptional enhancer factor TEF-4-Lipid; test: Inhibition of His-tagged TEAD2 (unknown origin) to lipid (unknown origin) interaction preincubated for 30 mins followed by biotinylated lipid addition and measured after 60 mins by TR-FRET assay; design: species or system Homo sapiens
[13] = tested on: Transcriptional enhancer factor TEF-3-Lipid; test: Inhibition of His-tagged TEAD4 (unknown origin) to lipid (unknown origin) interaction preincubated for 30 mins followed by biotinylated lipid addition and measured after 60 mins by TR-FRET assay; design: species or system Homo sapiens
[14] = Inhibition of His-tagged TEAD3 (unknown origin) to YAP (unknown origin) protein-protein interaction preincubated for 30 mins followed by biotinylated YAP addition and measured after 60 mins by TR-FRET assay; design: species or system Homo sapiens
[15] = Inhibition of His-tagged TEAD3 (unknown origin) to TAZ (unknown origin) protein-protein interaction preincubated for 30 mins followed by biotinylated YAP addition and measured after 60 mins by TR-FRET assay; design: species or system Homo sapiens
[16] = tested on: Transcriptional enhancer factor TEF-5-Lipid; test: Inhibition of His-tagged TEAD3 (unknown origin) to lipid (unknown origin) interaction preincubated for 30 mins followed by biotinylated lipid addition and measured after 60 mins by TR-FRET assay; design: species or system Homo sapiens
[17] = Antiproliferative activity against human VMRC-LCD cells by CellTiter-Glo luminescent cell viability assay; format: functional, cell-based
[18] = Antiproliferative activity against human HCC1576 cells by CellTiter-Glo luminescent cell viability assay; format: functional, cell-based
OVCAR-8 [19] = test: Antiproliferative activity against human OVCAR-8 cells by CellTiter-Glo luminescent cell viability assay; format: functional, cell-based
OVCAR-8 [20] = test: Antiproliferative activity against human OVCAR-8 cells assessed as minimum efficacy by CellTiter-Glo luminescent cell viability assay; format: functional
[21] = Antiproliferative activity against human HCC1576 cells assessed as minimum efficacy by CellTiter-Glo luminescent cell viability assay; format: functional
[22] = Inhibition of TEAD (unknown origin) to YAP (unknown origin) protein-protein interaction expressed in HEK293T cells transfected with 8XGTIIC-Luciferase and CMV-betagalactosidase incubated for 24 hrs by luciferase reporter assay; format: cell-based, Homo sapiens
[23] = Antiproliferative activity against human FLO-1 cells incubated for 72 hrs by MTS assay; format: functional, cell-based; settings: FLO-1, 72 h
[24] = Antiproliferative activity against human SKGT4 cells incubated for 72 hrs by MTS assay; format: functional, cell-based; settings: SKGT4, 72 h
[25] = Antiproliferative activity against human OACP cells incubated for 72 hrs by MTS assay; format: functional, cell-based
[26] = Antiproliferative activity against human JHESO cells incubated for 72 hrs by MTS assay; format: functional, cell-based
HCT-116 = test: Antiproliferative activity against human HCT-116 cells incubated for 48 hrs by MTT assay; format: functional, cell-based; settings: HCT-116, 48 h
MCF7 [27] = test: Antiproliferative activity against human MCF7 cells incubated for 48 hrs by MTT assay; format: functional, cell-based; settings: MCF7, 48 h
PC-3 = test: Antiproliferative activity against human PC-3 cells incubated for 48 hrs by MTT assay; format: functional, cell-based; settings: PC-3, 48 h
MGC-803 = test: Antiproliferative activity against human MGC-803 cells incubated for 48 hrs by MTT assay; format: functional, cell-based; settings: MGC-803, 48 h
SGC-7901 = test: Antiproliferative activity against human SGC-7901 cells incubated for 48 hrs by MTT assay; format: functional, cell-based; settings: SGC-7901, 48 h
HGC-27 = test: Antiproliferative activity against human HGC-27 cells incubated for 48 hrs by MTT assay; format: functional, cell-based; settings: HGC-27, 48 h
U-251 [28] = test: Antiproliferative activity against human U251 cells incubated for 48 hrs by CCK8 assay; format: functional, cell-based; settings: U-251, 48 h
C6 = test: Antiproliferative activity against rat C6 cells incubated for 48 hrs by CCK8 assay; format: functional, cell-based; settings: C6, 48 h
U-251 [29] = test: Antiproliferative activity against human U-251 cells incubated for 48 hrs by CCK8 assay; format: functional, cell-based; settings: U-251, 48 h
[30] = Antiproliferative activity against […] cells incubated for 48 hrs by CCK8 assay; format: functional, cell-based; settings: U373 MG
GBM = test: Antiproliferative activity against human GBM cells incubated for 48 hrs by CCK8 assay; format: functional, cell-based
U-87 MG = test: Antiproliferative activity against human U87 cells incubated for 48 hrs by CCK8 assay; format: functional, cell-based, U-87MG ATCC
[31] = Antiproliferative activity against mouse GL261 cells incubated for 48 hrs by CCK8 assay; format: functional, cell-based; settings: GL261, 48 h
LN-229 = test: Antiproliferative activity against LN-229 cells incubated for 48 hrs by CCK8 assay; format: functional, cell-based; settings: Homo sapiens, LN-229, 48 h

CC(C)[C@]12O[C@H]1[C@@H]1O[C@@]13[C@@]1(C)CCC4=C(COC4=O)[C@@H]1C[C@@H]1O[C@@]13C2=O [TRIPTONIDE]
IC50 (C8161): 5.56 nM
IC50 (A-375): 16.2 nM

O=c1cc(-c2ccc(O)c(O)c2)oc2cc(O)cc(O)c12 [LUTEOLIN]
IC50 (4T1): 6980 nM
IC50 (MDA-MB-231 [1]): 19200 nM

CCC(C)(C)C(=O)O[C@H]1C[C@@H](C)C=C2C=C[C@H](C)[C@H](CC[C@@H]3C[C@@H](O)CC(=O)O3)[C@H]21 [SIMVASTATIN]
IC50 (MCF7 [2]): > 10000 nM

Cc1nc(Nc2ncc(C(=O)Nc3c(C)cccc3Cl)s2)cc(N2CCN(CCO)CC2)n1 [DASATINIB ANHYDROUS]
IC50 (MDA-MB-231 [3]): < 10000 nM
IC50 [4]: < 10000 nM

N#C[C@@H]1CCN(C(=O)c2cnn3c(=O)cc(-c4ccc(C5CCCCC5)cc4)[nH]c23)C1
IC50 [5]: 10 nM
IC50 [6]: 30 nM
IC50 [7]: 50 nM
IC50 [8]: 30 nM
IC50 [9]: 10 nM
IC50 [10]: 80 nM
IC50 [11]: 210 nM
IC50 [12]: 20 nM
IC50 [13]: 50 nM
IC50 [14]: 50 nM
IC50 [15]: 40 nM
IC50 [16]: 40 nM

O=C(c1c(-c2cnccn2)nn2c(=O)cc(-c3ccc(C4CCCCC4)cc3)[nH]c12)N1CC(CF)C1
EC50 [17]: > 50000 nM
IC50 [5]: 10 nM
IC50 [6]: 50 nM
IC50 [7]: 40 nM
IC50 [8]: 40 nM
IC50 [9]: 10 nM
EC50 [18]: 190 nM
IC50 [10]: 30 nM
EC50 (OVCAR-8 [19]): 200 nM
Emin (OVCAR-8 [20]): 84%
Emin [21]: 67%
IC50 [11]: 50 nM
IC50 [12]: 20 nM
IC50 [13]: > 20 nM
IC50 [14]: 110 nM
IC50 [15]: 60 nM
IC50 [16]: 40 nM

COc1ccc2c(c1)/C(=N/NC(=O)c1nnn(-c3ccccc3N)c1-c1ccc(Cl)c(Cl)c1)C(=O)N2
IC50 [22]: 1700 nM

O=S(=O)(c1ccc2c(c1)C(=NO)c1cc(S(=O)(=O)N3CCCCC3)ccc1-2)N1CCCCC1
IC50 [23]: < 1000 nM
IC50 [24]: < 1000 nM
IC50 [25]: < 1000 nM
IC50 [26]: < 1000 nM

COc1ccc(S(=O)(=O)N(Cc2nc(C)c3ccccc3n2)c2cc(OC)c(OC)c(OC)c2)cc1
IC50 (HCT-116): 700 nM
IC50 (MCF7 [27]): 810 nM
IC50 (PC-3): 1040 nM
IC50 (MGC-803): 360 nM
IC50 (SGC-7901): 380 nM
IC50 (HGC-27): 460 nM

O=c1ccc2ccc3occc3c2o1 [ANGELICIN]
IC50 (U-251 [28]): 200000 nM
IC50 (C6): 200000 nM

CN(C)CCCN1c2ccccc2CCc2ccccc21 [IMIPRAMINE]
IC50 (U-251 [29]): 24000 nM
IC50 [30]: 346000 nM
IC50 (GBM): 22100 nM
IC50 (U-87 MG): 13300 nM
IC50 [31]: 43800 nM
IC50 (LN-229): 153000 nM

— ChEMBL document CHEMBL6071129, “Strategies that regulate Hippo signaling pathway for novel anticancer therapeutics” (Eur J Med Chem, 2024)
